Test results as given in US7351728B2, “Oxazolyl-aryloxyacetic acid derivatives and their use as PPAR agonists” (Eli Lilly and Company, priority 2003, dated 2008).

system: db/db mice; assay: Evaluation of glucose levels in db/db mice; format: in vivo; conditions: Mus musculus, 168 h; 30 mg/kg daily oral gavage 7 days, male db/db mice; 100% = lean values; read-out: Glucose Normalization %
Experimental: Five week old male diabetic (db/db) mice [C57BlKs/j-m +/+ Lepr(db), Jackson Laboratory, Bar Harbor, Me.] or lean littermates (db+) were housed 6 per cage (10″×20″×8″ with aspen chip bedding) with food (Purina 5015) and water available at all times. After an acclimation period of 2 weeks, animals were individually identified by ear notches, weighed, and bled via the tail vein for determination of initial glucose levels. Blood was collected (100 μl) from unfasted animals by wrapping each mouse in a towel, cutting the tip of the tail with a scalpel, and milking blood from the tail into a heparinized capillary tube (Fisher) balanced on the edge of the bench. Sample was discharged into a heparinized microtainer with gel separator (VWR) and retained on ice. Plasma was obtained after centrifugation at 4° C. and glucose measured immediately. Remaining plasma was frozen until the completion of the experiment, when glucose and triglycerides were assayed in all samples. Animals were grouped based on initial glucose levels and body weights. Beginning the following morning, mice were dosed daily by oral gavage for 7 days using a 20 gauge, 1½″ curved disposable feeding needle. Treatments were test compounds (30 mg/kg), a positive control agent (30 mg/kg) or vehicle [1% carboxymethylcellulose (w/v)/0.25% Tween80 (w/v); 0.3 ml/mouse]. On day 7, mice were weighed and bled (tail vein) 3 hours after dosing. Twenty-four hours after the 7th dose (i.e., day 8), animals were bled again (tail vein). Samples obtained from conscious animals on days 0, 7 and 8 were assayed for glucose. After the 24 hour bleed, animals were weighed and dosed for the final time. Three hours after dosing on day 8, animals were anesthetized by inhalation of isoflurane and blood obtained via cardiac puncture (0.5-0.7 ml). Whole blood was transferred to serum separator tubes, chilled on ice and permitted to clot. Serum was obtained after centrifugation at 4° C. and frozen until analysis for compound levels. After sacrifice by cervical dislocation, the liver, heart and epididymal fat pads were excised and weighed.
The animals dosed with vehicle had average triglycerides values of 170-230 mg/dl, which were reduced by the positive PPARγ control (70-120 mg/dl with a mean reduction of 50%). Male db/db mice were hyperglycemic (average glucose of 680-730 mg/dl on the 7th day of treatment), while lean animals had average glucose levels between 190-230 mg/dl.
Glucose was measured colorimetrically using commercially purchased reagents (Sigma #315-500). According to the manufacturers, the procedures were modified from published work (McGowan, M. W., Artiss, J. D., Strandbergh, D. R. & Zak, B. Clin Chem, 20:470-5 (1974) and Keston, A. Specific colorimetric enzymatic analytical reagents for glucose. Abstract of papers 129th Meeting ACS, 31C (1956).); and depend on the release of a mole of hydrogen peroxide for each mole of analyte, coupled with a color reaction first described by Trinder (Trinder, P. Determination of glucose in blood using glucose oxidase with an alternative oxygen acceptor. Ann Clin Biochem, 6:24 (1969)). The absorbance of the dye produced is linearly related to the analyte in the sample. The assays were further modified in our laboratory for use in a 96 well format. Standards (Sigma #339-11, Sigma #16-11, and Sigma #CC0534 for glucose triglycerides and total cholesterol, respectively), quality control plasma (Sigma # A2034), and samples (2 or 5 μl/well) were measured in duplicate using 200 μl of reagent. An additional aliquot of sample, pipetted to a third well and diluted in 200 μl water, provided a blank for each specimen. Plates were incubated at room temperature (18, 15, and 10 minutes for glucose, triglycerides and total cholesterol, respectively) on a plate shaker (DPC Micormix 5) and absorbance read at 500 nm (glucose and total cholesterol) or 540 nm (triglycerides) on a plate reader (Wallac Victor 1420). […]

| SMILES | inhibition in vivo at 30 mg/kg [%] |
| --- | --- |
| Cc1oc(-c2ccccc2)nc1CCOc1ccc(OC(C)(C)C(=O)O)cc1 [Example 1, 2-Methyl-2-{4-[2-(5-methyl-2-phenyloxazol-4-yl)ethoxy]phenoxy}propionic acid] | 38 |
| Cc1oc(-c2cccc(Br)c2)nc1CCOc1ccc(OC(C)(C)C(=O)O)cc1 [Example 9A, 2-(4-{2-[2-(3-Bromophenyl)-5-methyloxazol-4-yl]ethoxy}phenoxy)-2-methylpropionic acid] | 86 |
| CCc1cccc(-c2nc(CCOc3ccc(OC(C)(C)C(=O)O)cc3)c(C)o2)c1 [Example 12, 2-(4-{2-[2-(3-Ethylphenyl)-5-methyloxazol-4-yl]ethoxy}phenoxy)-2-methylpropionic acid] | 101 |
| Cc1oc(-c2cccc(CCc3ccccc3)c2)nc1CCOc1ccc(OC(C)(C)C(=O)O)cc1 [Example 12A, 2-Methyl-2-(4-{2-[5-methyl-2-(3-phenethylphenyl)oxazol-4-yl]ethoxy}phenoxy)-propionic acid] | 51 |
| CCc1ccc(-c2nc(CCOc3ccc(OC(C)(C)C(=O)O)cc3)c(C)o2)cc1 [Example 13, 2-(4-{2-[2-(4-Ethylphenyl)-5-methyloxazol-4-yl]ethoxy}phenoxy)-2-methylpropionic acid] | 65 |
| Cc1oc(-c2ccc(OC3CCCCC3)cc2)nc1CCOc1ccc(OC(C)(C)C(=O)O)cc1 [Example 21, 2-(4-{2-[2-(4-Cyclohexyloxy-phenyl)-5-methyl-oxazol-4-yl]-ethoxy}-phenoxy)-2-methyl-propionic acid] | 23 |
| Cc1cc(OCCc2nc(-c3ccccc3)oc2C)ccc1OC(C)(C)C(=O)O [Example 24, 2-Methyl-2-{2-methyl-4-[2-(5-methyl-2-phenyloxazol-4-yl)ethoxy]phenoxy}propionic acid] | 72 |
| CCCc1cc(OCCc2nc(-c3ccccc3)oc2C)ccc1OCC(=O)O [Example 26, {4-[2-(5-methyl-2-phenyl-oxazol-4-yl)ethoxy]-2-propylphenoxy}acetic acid] | 42 |
| CCCc1cc(OCCc2nc(-c3ccccc3)oc2C)ccc1OC(C)(C)C(=O)O [Example 26A, 2-Methyl-2-{4-[2-(5-methyl-2-phenyloxazol-4-yl)ethoxy]-2-propylphenoxy}propionic acid] | 77 |
| CCCc1cc(OC(C)(C)C(=O)O)ccc1OCCc1nc(-c2ccccc2)oc1C [Example 27A, 2-Methyl-2-{4-[2-(5-methyl-2-phenyloxazol-4-yl)ethoxy]-3-propylphenoxy}propionic acid] | 62 |
| CCc1cc(OCCc2nc(-c3ccccc3)oc2C)ccc1OC(C)(C)C(=O)O [Example 30A, 2-{2-Ethyl-4-[2-(5-methyl-2-phenyloxazol-4-yl)ethoxy]phenoxy}2-methylpropionic acid] | 76 |
| Cc1oc(-c2ccccc2)nc1CCOc1ccc(OC(C)(C)C(=O)O)c(CC(C)C)c1 [Example 30C, 2-{2-Isobutyl-4-[2-(5-methyl-2-phenyloxazol-4-yl)ethoxy]phenoxy}-2-methylpropionic acid] | 48 |
| Cc1oc(-c2ccccc2)nc1CCOc1ccc(OC(C)(C)C(=O)O)c(CCc2ccccc2)c1 [Example 30J, 2-Methyl-2-{4-[2-(5-methyl-2-phenyloxazol-4-yl)ethoxy]-2-phenethylphenoxy}propionic acid] | 58 |
| CCCCc1cc(OC(C)(C)C(=O)O)ccc1OCCc1nc(-c2ccccc2)oc1C [Example 31F, 2-{3-Butyl-4-[2-(5-methyl-2-phenyloxazol-4-yl)ethoxy]phenoxy}-2-methylpropionic acid] | 77 |
| Cc1oc(-c2ccccc2)nc1CCOc1ccc(OC(C)(C)C(=O)O)c(Cc2ccccc2)c1 [Example 32, 2-{2-Benzyl-4-[2-(5-methyl-2-phenyloxazol-4-yl)ethoxy]phenoxy}-2-methylpropionic acid] | 47 |
| Cc1oc(-c2ccccc2)nc1CCOc1ccc(OC(C)(C)C(=O)O)c2ccccc12 [Example 37, 2-Methyl-2-{4-[2-(5-methyl-2-phenyl-oxazol-4-yl)-ethoxy]-naphthalen-1-yloxy}-propionic acid] | 56 |
| Cc1oc(-c2ccccc2)nc1CCOc1ccc(OC(C)(C)C(=O)O)c2c1CCCC2 [Example 38, 2-Methyl-2-{4-[2-(5-methyl-2-phenyl-oxazol-4-yl)-ethoxy]-5,6,7,8-tetrahydro-naphthalen-1-yloxy}-propionic acid] | 38 |
